These results are taken from patent US9096532B2, “Pyrazole inhibitors of COX-2 and sEH” (The Regents of the University of California, priority 2010, dated 2015).

The target in data set [1] is T1, ovine COX-1 (Ovis aries, UniProt P05979).
T1 construct: purchased Cayman Chemical 700100
T1 sequence (P05979 25-600): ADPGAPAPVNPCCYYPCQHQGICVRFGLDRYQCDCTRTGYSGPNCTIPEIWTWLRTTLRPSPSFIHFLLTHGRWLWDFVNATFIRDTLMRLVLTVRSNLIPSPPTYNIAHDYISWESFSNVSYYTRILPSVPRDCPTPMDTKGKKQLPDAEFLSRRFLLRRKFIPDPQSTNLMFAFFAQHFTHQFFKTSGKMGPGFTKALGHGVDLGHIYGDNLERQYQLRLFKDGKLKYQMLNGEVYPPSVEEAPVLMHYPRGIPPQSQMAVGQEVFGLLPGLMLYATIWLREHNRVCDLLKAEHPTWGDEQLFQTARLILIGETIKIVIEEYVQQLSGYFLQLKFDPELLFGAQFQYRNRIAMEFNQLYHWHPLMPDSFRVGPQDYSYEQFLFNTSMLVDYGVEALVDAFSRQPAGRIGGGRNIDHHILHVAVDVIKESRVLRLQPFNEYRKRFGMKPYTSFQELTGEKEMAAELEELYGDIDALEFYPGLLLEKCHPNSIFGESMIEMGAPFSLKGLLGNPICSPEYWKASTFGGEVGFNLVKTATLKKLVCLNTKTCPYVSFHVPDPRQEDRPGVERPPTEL
Nature of the data set: Cyclooxygenase inhibition assay (COX Fluorescent Inhibitor Screening Assay Kit), COX-1. The following applies: read-out: COX-1 (% inhibition). Format: biochemical. On the procedure:
(§1) Stock solutions of test compounds are dissolved in a minimum volume of DMSO. 10 μl of various concentrations of the test compound solutions, e.g., [I]final between 0.01 and 100 μM, are added to a series of supplied reaction buffer solutions (150 μl, 100 mM Tris-HCl, pH 8.0) with either COX-1 or COX-2 (10 μl) enzyme in the presence of Heme (10 μl) and a fluorometric substrate (10 μl). The reactions are initiated by quickly adding 10 μl of arachidonic acid solution and then incubating the system for two minutes at room temperature. […] The intensity of this fluorescence is proportional to the amount of resorufin, which is proportional to the amount of PGG2 present in the well during the incubation. Percent inhibition is calculated by comparison from the 100% initial activity sample value (no inhibitor).
as §1, with “compounds were” for “compounds are”, “μM, were” for “μM, are”, “reactions were” for “reactions are”, “then incubated” for “then incubating the system”, “inhibition was” for “inhibition is”

The target of data set [2] is T2, human sEH (Homo sapiens, UniProt P34913).
T2 sequence (P34913 1-555): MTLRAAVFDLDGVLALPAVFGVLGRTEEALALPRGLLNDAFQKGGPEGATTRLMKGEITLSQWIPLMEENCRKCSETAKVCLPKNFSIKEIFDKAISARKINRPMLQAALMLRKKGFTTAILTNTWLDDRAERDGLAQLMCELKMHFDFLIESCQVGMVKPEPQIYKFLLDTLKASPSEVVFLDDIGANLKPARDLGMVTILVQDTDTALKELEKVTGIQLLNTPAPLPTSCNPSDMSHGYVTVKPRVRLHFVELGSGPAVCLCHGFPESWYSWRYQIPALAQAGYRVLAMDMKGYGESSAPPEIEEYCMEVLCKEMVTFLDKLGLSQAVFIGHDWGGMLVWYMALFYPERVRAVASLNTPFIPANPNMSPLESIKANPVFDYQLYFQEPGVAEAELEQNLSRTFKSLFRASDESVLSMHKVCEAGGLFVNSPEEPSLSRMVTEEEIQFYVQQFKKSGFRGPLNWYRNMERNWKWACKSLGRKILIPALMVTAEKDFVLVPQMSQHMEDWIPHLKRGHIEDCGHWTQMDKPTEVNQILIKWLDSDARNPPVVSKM
Nature of the data set: sEH IC50 assay, fluorescent-based with CMNPC substrate. It counts as biochemical. The following applies: for IC50: kinetic fluorescent assay, means ± SD of three separate experiments. On the procedure: sEH inhibition IC50 values for the compounds presented herein can be assayed by a recombinant affinity assay using purified sEHs, from human, mouse or rat, in a fluorescent-based assay.
For the recombinant affinity assay, purified sEHs (human, mouse and rat) were used in a fluorescent-based assay to determine IC50 values. […] These IC50 values were calculated from at least three separate runs, each in triplicate, to obtain the statistics herein, e.g., standard deviation.

A short description of data set [3]: Pharmacokinetics in mice by oral cassette dosing. It counts as in vivo. The following applies: oral cassette dosing at 5 mg/kg, blood.
Protocol: All the animal experiments were performed according to protocols approved by the Animal Use and Care Committee of University of California, Davis. […] Each cassette was orally administered to 4 mice at a dose of 5 mg/kg in 120-150 μl of vehicle depending on animal weight. […] The instrument was equipped with a linear ion trap and a Turbo V ion source and was operated in negative ion MRM mode. […] This was maintained for 3 min, then the gradient was returned to 30% solvent B in 2 min. The flow rate was 0.4 mL/min. The injection volume was 10 μL and the samples were kept at 4° C. in the auto sampler.

Regarding `NS(=O)(=O)c1ccc(-n2nc(NC(=O)Nc3cccc(C(F)(F)F)c3)cc2-c2ccccc2)cc1` [Compound 7, 4-{5-Phenyl-3-[3-(3-trifluoromethyl-phenyl)-ureido]-pyrazol-1-yl}-benzenesulfonamide], the inhibition at 100 µM in data set [1] turned out to be 33.9%.
As to `CS(=O)(=O)c1ccc(-n2nc(CNC(=O)NC34CC5CC(CC(C5)C3)C4)cc2-c2ccccc2)cc1` [Compound 11a, 1-Adamantan-1-yl-3-[1-(4-methanesulfonyl-phenyl)-5-phenyl-1H-pyrazol-3-ylmethyl]-urea], the inhibition at 100 µM in data set [1] was 12.7%.
In the case of `CS(=O)(=O)c1ccc(-n2nc(CNC(=O)NC3CCCCCC3)cc2-c2ccccc2)cc1` [Compound 11b, 1-Cycloheptyl-3-[1-(4-methanesulfonyl-phenyl)-5-phenyl-1H-pyrazol-3-ylmethyl]-urea], the “Improvement of sEH inhibition” value in data set [2] (compared to compound 11a) is given as 10 fold. The inhibition at 100 µM in data set [1] came to 3.4%.
Turning to `CS(=O)(=O)c1ccc(-n2nc(CNC(=O)Nc3ccc(OC(F)(F)F)cc3)cc2-c2ccccc2)cc1` [Compound 11d, 1-[1-(4-Methanesulfonyl-phenyl)-5-phenyl-1H-pyrazol-3-ylmethyl]-3-(4-trifluoromethoxy-phenyl)-urea], the inhibition at 100 µM in data set [1] amounted to 10.4%.
The same measure, in the same setting: then `CS(=O)(=O)c1ccc(-n2nc(CNC(=O)Nc3ccc(C(F)(F)F)cc3)cc2-c2ccccc2)cc1` [Compound 11e, 1-[1-(4-Methanesulfonyl-phenyl)-5-phenyl-1H-pyrazol-3-ylmethyl]-3-(4-trifluoromethyl-phenyl)-urea], with 10.7%; and `CS(=O)(=O)c1ccc(-n2nc(CNC(=O)Nc3cccc(C(F)(F)F)c3)cc2-c2ccccc2)cc1` [Compound 11f, 1-[1-(4-Methanesulfonyl-phenyl)-5-phenyl-1H-pyrazol-3-ylmethyl]-3-(3-trifluoromethyl-phenyl)-urea], with 7.8%.
The same measure, in the same setting: then `NS(=O)(=O)c1ccc(-n2nc(CNC(=O)Nc3cccc(C(F)(F)F)c3)cc2-c2ccccc2)cc1` [Compound 11g, 4-{5-Phenyl-3-[3-(3-trifluoromethyl-phenyl)-ureidomethyl]-pyrazol-1-yl}-benzenesulfonamide], with 16.9%.
`CC(C)(C)c1cc(CNC(=O)Nc2cccc(C(F)(F)F)c2)nn1-c1ccc(S(C)(=O)=O)cc1` [Compound 11h, 1-[5-tert-Butyl-1-(4-methanesulfonyl-phenyl)-1H-pyrazol-3-ylmethyl]-3-(3-trifluoromethyl-phenyl)-urea]: the inhibition at 100 µM in data set [1] was 2.4%.
On to `NS(=O)(=O)c1ccc(-n2nc(CCNC(=O)Nc3cccc(C(F)(F)F)c3)cc2-c2ccccc2)cc1` [Compound 15, 4-(5-Phenyl-3-{2-[3-(3-trifluoromethyl-phenyl)-ureido]-ethyl}-pyrazol-1-yl)-benzenesulfonamide], for which the “Improvement of sEH inhibition” value in data set [2] (compared to compound 11g) is recorded as 3 fold. Moreover, the inhibition at 100 µM in data set [1] was found to be 22%.
`CS(=O)(=O)c1ccc(-n2nc(CCCNC(=O)Nc3cccc(C(F)(F)F)c3)cc2-c2ccccc2)cc1` [Compound 21a, 1-{3-[1-(4-Methanesulfonyl-phenyl)-5-phenyl-1H-pyrazol-3-yl]-propyl}-3-(3-trifluoromethyl-phenyl)-urea]: the inhibition at 100 µM in data set [1] turned out to be 6.4%.
As for `Cc1cccc(C)c1NC(=O)NCCCc1cc(-c2ccccc2)n(-c2ccc(S(N)(=O)=O)cc2)n1` [Compound 21d, 4-(3-{3-[3-(2,6-Dimethyl-phenyl)-ureido]-propyl}-5-phenyl-pyrazol-1-yl)-benzenesulfonamide], in data set [2], inhibition was half-maximal at 1.55 ± 0.07 µM (IC50). For the same molecule, the inhibition at 100 µM in data set [1] was 6.2%.
As to `NS(=O)(=O)c1ccc(-n2nc(CCCNC(=O)Nc3ccccc3)cc2-c2ccccc2)cc1` [Compound 21e, 4-{5-Phenyl-3-[3-(3-phenyl-ureido)-propyl]-pyrazol-1-yl}-benzenesulfonamide], the inhibition at 100 µM in data set [1] was found to be 15.8%. Further, in data set [3], the AUC was 0.125 µM·h, the Cmax was found to be 100 nM, the Tmax was found to be 0.5 h and the t1/2 was found to be 3.1 h.
Taken in the same sequence, the figures for `NS(=O)(=O)c1ccc(-n2nc(CCCNC(=O)NC34CC5CC(CC(C5)C3)C4)cc2-c2ccccc2)cc1` [Compound 21f, 4-{3-[3-(3-Adamantan-1-yl-ureido)-propyl]-5-phenyl-pyrazol-1-yl}-benzenesulfonamide] were 6.7%, 0.022 µM·h, 20 nM, 0.5 h and 1.7 h.
Taken in the same sequence, the figures for `NS(=O)(=O)c1ccc(-n2nc(CCCNC(=O)NC3CCCCCC3)cc2-c2ccccc2)cc1` [Compound 21g, 4-{3-[3-(3-Cycloheptyl-ureido)-propyl]-5-phenyl-pyrazol-1-yl}-benzenesulfonamide] were 10.2%, 0.1 µM·h, 42 nM, 0.5 h and 3.5 h.
Regarding `NS(=O)(=O)c1ccc(-n2nc(CCCNC(=O)Nc3ccc(Cl)cc3)cc2-c2ccccc2)cc1` [Compound 21h, 4-(3-{3-[3-(4-Chloro-phenyl)-ureido]-propyl}-5-phenyl-pyrazol-1-yl)-benzenesulfonamide], in data set [1], the inhibition at 100 µM was found to be 15.2%. Further, in data set [3], the AUC was determined as 0.375 µM·h, the concentration peaked (Cmax) at 190 nM, the Tmax is 0.8 h and the t1/2 is 2.4 h.
In data set [2], `COc1ccc2c(c1)c(CC(=O)O)c(C)n2C(=O)c1ccc(Cl)cc1` [Indomethacin, reference compound] had an IC50 above 10 µM.
Take `CS(=O)(=O)c1ccc(C2=C(c3ccccc3)C(=O)OC2)cc1` [Rofecoxib, rofecoxib, reference compound]: the IC50 in data set [2] was above 10 µM. For the same molecule, the inhibition at 100 µM in data set [1] came out at 16.5%.

Broadly, the inhibition is the change of the read-out against control, counted positive when it falls. Usually IC50 stands for the concentration that gives 50% inhibition. Low readings indicate greater potency, high ones weaker potency. What is called AUC is the area under the concentration-time curve, a measure of exposure. The low end stands for low exposure, the high end for high exposure. As usually defined, the Cmax is the highest concentration seen after dosing. The Tmax is the time from dosing to the highest level.
